Data on 1 compound can be found in patent US11964943B2, “3,5-diarylidenyl-n-substituted-piperid-4-one-derived inhibitors of Stat3 pathway activity and uses thereof” (priority 2017, dated 2024).

Holding throughout (format): cell-based
Assay [1] deals with survivin, Bcl-2, Bcl-xL, MMP-9, cleaved PARP, cleaved caspase-3. In words: Immunoblotting of Stat3 downstream targets and apoptosis markers. As to the method: (§1) Whole cell lysates were prepared by incubation of harvested, trypsinised cells with CelLytic™ lysis buffer (Sigma-Aldrich) supplemented with 1× protease and 1× phosphatase inhibitors (Roche). Protein quantification was carried out using a protein assay kit (Bio-Rad). 40 μg of the lysates were denatured by heating for 5 min at 95° C. in sample buffer containing 100 mM Tris-Cl (pH 6.8), 4% SDS, 10% 2-mercaptoethanol, 20% glycerol, and 0.02% bromophenol blue. Precision Plus Protein Dual colour standards (Bio-Rad) were used as a molecular weight reference. For the detection of STAT3, pSTAT3, α/β tubulin, cleaved PARP, Bcl-2, Bcl-xL, FANCD2, BRCA1, EME1 and MUS81, proteins were separated on a NuPAGE 7% Tris-acetate gel (Life Technologies) and subsequently transferred to polyvinylidene difluoride membranes (Immobilon®-P transfer membrane; Millipore). […] Membranes were blocked for 1 h at ambient temperature in a blocking buffer containing 5% w/v Bovine Serum Albumin (BSA; Sigma-Aldrich) in 1×TBS, 0.1% Tween-20. All proteins were identified by incubation in a 1:1000 dilution of the respective polyclonal antibodies (Cell signaling) in blocking buffer overnight at 4° C. and subsequent incubation for 1 h with an anti-rabbit or anti-mouse secondary antibody (Cell signalling) at a dilution of 1:1000. The α/β tubulin (1:2000; Cell Signaling) and the anti-phospho-histone H2AX Antibody (1:500; Millipore) were used in the denoted dilutions. Antibody binding was visualized by enhanced chemiluminescence (Amersham) on autoradiography film (Kodak-X-Omat). Alternatively Images were captured by the GelDoc-It Imaging System Fusion Fx7 (Vilber Lourmat, Germany).
as §1, with “Immunoblotting. Whole” for “Whole”, “CelLytic™ M” for “CelLytic™”, “pSTAT3, a/0” for “pSTAT3, α/β”, “in 1×TBS” for “in 1×TBS,”, “(Cell signalling)” for “(Cell signaling)”
(In general: In western blotting, separated proteins are transferred to a membrane and probed.)

The subject of the next assay is DU145 cells. In words: SRB growth inhibition assay for radiosensitization. Conditions: 18 h pretreatment, then irradiation. As to the method: Stock cultures were trypsinised and 2500 cells were seeded into each well of 96-well, flat-bottomed microtiter plates, in a volume of 200 μl and left to adhere overnight at 37° C. The desired concentrations of IE-8 or curcumin were prepared in culture medium immediately before use. Medium in wells was removed and 200 μl of drug medium mixture was added. Three replicates were used for each drug concentration. One solvent control lane was included in each experiment. Plates were incubated for 18 h at 37° C. At the end of the drug treatment, the media was replaced with 200 μl of fresh media. Subsequently the plates were irradiated at 0, 2, 4 and 6 Gy. The plates were incubated for three days in a humidified incubator at 37° C. with 5% CO2. The media in the wells was removed and 100 μl of ice-cold 10% (wt/vol) trichloroethanoic acid (TCA) was added per well, to fix the cells. […] Plates were left at room temperature for 20 minutes, and the optical density (OD) at 540 nm was determined using a microplate reader (Thermo). Growth inhibition was expressed as the fraction of control A540 (surviving fraction) and calculated from the following equation; fraction of control A540=OD of untreated control at each radiation dose. The mean surviving fraction for each drug concentration for each radiation dose was calculated.

The next assay relates to γ-H2AX. In words: γ-H2AX immunofluorescence staining. Conditions: DU145, 1.2 μM 18 h then 60 μM cisplatin 1 h. As to the method: For Stat3, pStat3 staining, 2.5×10^4 cells/ml were plated on 13-mm glass cover slip (VWR) in 24 well plates, allowed to adhere and processed the next day. Cells were treated with IE-8 for 18 h, and subsequently washed in ice cold PBS and fixed with 2% paraformaldehyde PFA (Alfa Aesar) for 10 min at room temperature, followed by permeabilization with PBS containing 0.5% Triton X-100 for 10 min. Cells were blocked in PBS 5% BSA for 1 h at ambient temperature. Respective proteins were identified by incubation for 4 h with anti-Stat3 and anti-pStat3 rabbit polyclonal antibodies (1:1000, Cell signalling) or anti-phospho-Histone H2A.X mouse monoclonal (1:500; Millipore) diluted in a PBS 1% BSA buffer. Cells were incubated with a secondary fluorescent conjugated antibody Alexa Fluor 488 (1:500; Life Technologies) for 2 h at RT. Nuclei were stained using propidium iodide (2 μg/ml; Sigma-Aldrich) and mounted on glass slides with mounting medium (Dako).
To quantify γ-H2AX foci from images obtained using the protocol above, the program CellProfiler was utilized. Each cell nucleus was identified and the number of foci within computationally counted. The number of foci was taken as an average from the first 30 cells measured with a detection threshold of 0.3.

The mark [2] stands for this setting: A2780-cisplatin resistant cells.

The structures appear in SMILES notation.

For the compound `COc1cc(/C=C2\CN(c3ccccc3)C/C(=C\c3cc(OC)c(OC)c(OC)c3)C2=O)cc(OC)c1OC` [IE-8, 3,5-Di(3,4,5-trimethoxybenzylidene)-1-phenylpiperidin-4-one], in assay [1] (setting [2]), the “induction of apoptosis (cleaved PARP, cleaved caspase 3, Annexin-V/PI)” value is on record as “induced apoptosis”; the “inhibition of downstream Stat3 targets Bcl-xL and survivin” value was “capable of inhibiting”. Besides, in assay [1] (A2780-cisplatin resistant cells, IL-6 stimulated), the “downregulation of MMP-9” value is listed as “downregulates the matrix metalloproteinase MMP-9”. Moreover, the “induction of apoptosis (cleaved PARP)” value in assay [1] (DU145 and A549 cells, 18 h) is given as “induced cell death via apoptosis”. For the same compound, the “downregulation of survivin and Bcl-2” value in assay [1] (DU145 cells, 18 h) is reported as “downregulated the transcription of key Stat3 target genes”. Also, the “radiosensitization (cell survival, SRB)” value in the assay on DU145 cells is given as “more efficient at reducing cell survival”. Further, the “DNA-damage response to cisplatin (γ-H2Ax induction)” value with γ-H2AX is given as “enhanced”.
